Assay results as given in ChEMBL document CHEMBL5346943, “Discovery and Structural Optimization of Novel Quinolone Derivatives as Potent Irreversible Pan-Fibroblast Growth Factor Receptor Inhibitors for Treating Solid Tumors” (J Med Chem, 2023).

Experiments:
[1] = biological target: T1, Fibroblast growth factor receptor 4 (Homo sapiens, UniProt P22455); assay: Inhibition of FGFR4 (unknown origin) incubated for 10 mins followed by substrate addition measured after 60 mins by ADP-Glo luminescence assay
Target sequence in this assay (P22455 whole entry): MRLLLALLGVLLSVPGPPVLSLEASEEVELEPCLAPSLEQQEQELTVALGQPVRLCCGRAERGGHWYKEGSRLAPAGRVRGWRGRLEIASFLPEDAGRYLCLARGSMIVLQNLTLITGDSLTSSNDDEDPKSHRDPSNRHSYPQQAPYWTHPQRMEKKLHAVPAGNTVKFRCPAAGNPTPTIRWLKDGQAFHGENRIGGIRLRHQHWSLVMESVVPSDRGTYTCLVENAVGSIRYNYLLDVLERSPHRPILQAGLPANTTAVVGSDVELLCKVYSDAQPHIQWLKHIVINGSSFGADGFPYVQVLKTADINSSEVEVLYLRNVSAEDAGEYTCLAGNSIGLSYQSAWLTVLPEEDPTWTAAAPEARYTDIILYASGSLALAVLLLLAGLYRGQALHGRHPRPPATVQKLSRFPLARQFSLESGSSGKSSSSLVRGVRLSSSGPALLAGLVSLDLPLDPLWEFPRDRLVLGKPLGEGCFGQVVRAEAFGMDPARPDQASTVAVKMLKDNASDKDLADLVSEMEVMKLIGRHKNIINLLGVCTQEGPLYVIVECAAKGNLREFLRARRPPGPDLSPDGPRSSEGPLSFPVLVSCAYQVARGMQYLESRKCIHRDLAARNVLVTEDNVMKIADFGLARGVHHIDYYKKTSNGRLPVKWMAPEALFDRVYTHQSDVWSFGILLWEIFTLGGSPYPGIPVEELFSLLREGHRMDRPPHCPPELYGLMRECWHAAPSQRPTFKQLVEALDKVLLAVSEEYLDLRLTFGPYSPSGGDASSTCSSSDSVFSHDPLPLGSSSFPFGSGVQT

Huh-7 = assay: Antiproliferative activity against human Huh-7 cells incubated for 72 hrs by Cell counting kit 8 method; assay type: functional, cell-based; conditions: Huh-7, 72 h
Hep 3B2 = assay: Antiproliferative activity against human Hep3B cells incubated for 72 hrs by Cell counting kit 8 method; assay type: functional, cell-based
[2] = biological target: T1, Fibroblast growth factor receptor 4; assay: Inhibition of FGFR4 (unknown origin) at 100 nM incubated for 10 mins followed by substrate addition measured after 60 mins by ADP-Glo luminescence assay relative to control; conditions: time 70.0 min
Target sequence in this assay (P22455 22-802 limits assumed): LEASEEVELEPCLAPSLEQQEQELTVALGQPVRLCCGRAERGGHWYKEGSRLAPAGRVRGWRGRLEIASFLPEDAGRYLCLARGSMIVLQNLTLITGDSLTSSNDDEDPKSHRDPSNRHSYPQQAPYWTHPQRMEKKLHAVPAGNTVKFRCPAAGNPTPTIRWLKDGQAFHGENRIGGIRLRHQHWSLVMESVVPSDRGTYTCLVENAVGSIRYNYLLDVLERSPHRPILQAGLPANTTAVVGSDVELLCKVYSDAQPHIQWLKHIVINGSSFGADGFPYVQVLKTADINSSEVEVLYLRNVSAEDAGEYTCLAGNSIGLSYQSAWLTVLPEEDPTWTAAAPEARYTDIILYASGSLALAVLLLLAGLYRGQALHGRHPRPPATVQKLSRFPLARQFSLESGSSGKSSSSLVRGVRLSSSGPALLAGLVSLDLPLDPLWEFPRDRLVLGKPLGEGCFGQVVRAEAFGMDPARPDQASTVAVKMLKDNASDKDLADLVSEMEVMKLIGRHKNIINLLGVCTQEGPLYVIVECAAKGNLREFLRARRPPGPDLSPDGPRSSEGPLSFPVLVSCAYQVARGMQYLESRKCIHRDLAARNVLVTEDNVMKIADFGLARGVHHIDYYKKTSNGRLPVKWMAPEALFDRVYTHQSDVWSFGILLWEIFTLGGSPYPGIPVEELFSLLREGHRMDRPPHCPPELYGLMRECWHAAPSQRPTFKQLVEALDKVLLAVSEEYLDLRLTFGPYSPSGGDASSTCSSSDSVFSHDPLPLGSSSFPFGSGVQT

[3] = MRT (0 to infinity) in Sprague-Dawley rat measured at 2 mg/kg, iv for 0.083 to 24 hrs by LC-MS/MS analysis; assay type: ADME, organism-based; conditions: in vivo, time 0.083-24 hrs
[4] = Oral bioavailability in Sprague-Dawley rat measured at 10 mg/kg for 0.083 to 24 hrs by LC-MS/MS analysis; assay type: ADME, organism-based; conditions: in vivo, time 0.083-24 hrs
[5] = biological target: Fibroblast growth factor receptor 1 (Homo sapiens, UniProt P11362); assay: Inhibition of FGFR1 (unknown origin) incubated for 10 mins followed by substrate addition measured after 60 mins by ADP-Glo luminescence assay
Sequence of Fibroblast growth factor receptor 1 (P11362 whole entry): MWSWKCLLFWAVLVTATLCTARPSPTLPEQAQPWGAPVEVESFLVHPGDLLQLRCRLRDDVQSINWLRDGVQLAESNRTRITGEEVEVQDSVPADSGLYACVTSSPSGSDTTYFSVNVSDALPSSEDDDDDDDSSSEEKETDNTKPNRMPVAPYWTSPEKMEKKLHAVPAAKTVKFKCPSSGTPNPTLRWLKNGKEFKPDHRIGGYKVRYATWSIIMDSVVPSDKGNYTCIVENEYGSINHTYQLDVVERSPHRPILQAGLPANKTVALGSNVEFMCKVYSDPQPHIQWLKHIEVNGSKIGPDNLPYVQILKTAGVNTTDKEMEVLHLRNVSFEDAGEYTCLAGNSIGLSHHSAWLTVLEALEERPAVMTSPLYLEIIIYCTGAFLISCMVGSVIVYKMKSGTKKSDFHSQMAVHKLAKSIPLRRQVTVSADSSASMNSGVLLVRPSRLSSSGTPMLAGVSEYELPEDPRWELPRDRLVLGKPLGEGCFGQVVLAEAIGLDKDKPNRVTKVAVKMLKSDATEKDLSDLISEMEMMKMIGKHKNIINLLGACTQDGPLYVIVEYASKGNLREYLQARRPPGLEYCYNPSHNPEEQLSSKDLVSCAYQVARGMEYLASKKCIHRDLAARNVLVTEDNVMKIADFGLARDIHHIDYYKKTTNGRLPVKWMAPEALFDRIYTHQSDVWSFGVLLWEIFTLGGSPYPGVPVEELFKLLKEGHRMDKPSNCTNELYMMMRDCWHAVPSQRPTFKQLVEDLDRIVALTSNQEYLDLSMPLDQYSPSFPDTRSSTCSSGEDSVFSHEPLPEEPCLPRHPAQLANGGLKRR

[6] = Half life in Sprague-Dawley rat measured at 10 mg/kg, po for 0.083 to 24 hrs by LC-MS/MS analysis; assay type: ADME, organism-based; conditions: in vivo, time 0.083-24 hrs
[7] = AUC (0 to infinity) in Sprague-Dawley rat measured at 2 mg/kg, iv for 0.083 to 24 hrs by LC-MS/MS analysis; assay type: ADME, organism-based; parameters: time lower 0.083 hrs, dose 2 mg/kg, time upper 24 hrs, route iv; conditions: in vivo
[8] = Volume of distribution at steady state in Sprague-Dawley rat measured at 2 mg/kg, iv for 0.083 to 24 hrs by LC-MS/MS analysis; assay type: ADME, organism-based; conditions: in vivo, time 0.083-24 hrs, read-out: Vdss
[9] = MRT (0 to infinity) in Sprague-Dawley rat measured at 10 mg/kg, po for 0.083 to 24 hrs by LC-MS/MS analysis; assay type: ADME, organism-based; conditions: in vivo, time 0.083-24 hrs
[10] = AUC (0 to t) in Sprague-Dawley rat measured at 10 mg/kg, po for 0.083 to 24 hrs by LC-MS/MS analysis; assay type: ADME, organism-based; parameters: dose 10 mg/kg, time upper 24 hrs, time lower 0.083 hrs, route po; conditions: in vivo
[11] = Tmax in Sprague-Dawley rat measured at 2 mg/kg, iv for 0.083 to 24 hrs by LC-MS/MS analysis; assay type: ADME, organism-based; conditions: in vivo, time 0.083-24 hrs
[12] = AUC (0 to t) in Sprague-Dawley rat measured at 2 mg/kg, iv for 0.083 to 24 hrs by LC-MS/MS analysis; assay type: ADME, organism-based; parameters: dose 2 mg/kg, time upper 24 hrs, time lower 0.083 hrs, route iv; conditions: in vivo
[13] = MRT (0 to t) in Sprague-Dawley rat measured at 10 mg/kg, po for 0.083 to 24 hrs by LC-MS/MS analysis; assay type: ADME, organism-based; conditions: in vivo, time 0.083-24 hrs
[14] = biological target: Fibroblast growth factor receptor 2 (Homo sapiens, UniProt P21802); assay: Inhibition of FGFR2 (unknown origin) incubated for 10 mins followed by substrate addition measured after 60 mins by ADP-Glo luminescence assay
Sequence of Fibroblast growth factor receptor 2 (P21802 whole entry): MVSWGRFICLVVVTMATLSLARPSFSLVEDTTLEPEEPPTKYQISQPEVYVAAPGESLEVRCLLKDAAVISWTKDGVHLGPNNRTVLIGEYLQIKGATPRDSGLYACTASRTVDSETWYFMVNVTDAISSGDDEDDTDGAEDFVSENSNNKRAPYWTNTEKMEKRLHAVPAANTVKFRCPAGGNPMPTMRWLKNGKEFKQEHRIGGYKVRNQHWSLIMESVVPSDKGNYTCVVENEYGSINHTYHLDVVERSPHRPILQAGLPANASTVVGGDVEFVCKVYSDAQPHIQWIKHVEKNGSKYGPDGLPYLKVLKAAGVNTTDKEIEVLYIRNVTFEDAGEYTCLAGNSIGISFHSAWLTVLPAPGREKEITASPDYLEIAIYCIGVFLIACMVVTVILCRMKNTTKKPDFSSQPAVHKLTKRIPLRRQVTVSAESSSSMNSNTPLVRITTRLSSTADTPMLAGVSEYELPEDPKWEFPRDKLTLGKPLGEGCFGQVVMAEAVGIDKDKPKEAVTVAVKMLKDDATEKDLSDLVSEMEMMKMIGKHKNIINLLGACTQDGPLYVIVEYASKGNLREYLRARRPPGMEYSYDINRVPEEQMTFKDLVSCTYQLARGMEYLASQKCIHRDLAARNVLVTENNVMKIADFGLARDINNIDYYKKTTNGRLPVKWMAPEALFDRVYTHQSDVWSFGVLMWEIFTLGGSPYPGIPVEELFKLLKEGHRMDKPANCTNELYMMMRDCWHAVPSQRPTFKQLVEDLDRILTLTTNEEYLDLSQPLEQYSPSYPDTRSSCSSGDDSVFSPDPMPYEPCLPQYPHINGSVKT

[15] = Solubility of the compound in PBS buffer of pH7.4 at 10 mM measured after 2 hrs by LC-MS/MS analysis; assay type: physicochemical; conditions: pH 7.4
[16] = Ionization constant, pKa of the compound in PBS buffer at pH 1.42 to 12.33 by electrochemical method; assay type: physicochemical
[17] = MRT (0 to t) in Sprague-Dawley rat measured at 2 mg/kg, iv for 0.083 to 24 hrs by LC-MS/MS analysis; assay type: ADME, organism-based; conditions: in vivo, time 0.083-24 hrs
[18] = Half life in Sprague-Dawley rat measured at 2 mg/kg, iv for 0.083 to 24 hrs by LC-MS/MS analysis; assay type: ADME, organism-based; conditions: in vivo, time 0.083-24 hrs
[19] = C0 in Sprague-Dawley rat measured at 2 mg/kg, iv for 0.083 to 24 hrs by LC-MS/MS analysis; assay type: ADME, organism-based; conditions: in vivo, time 0.083-24 hrs
[20] = AUC (0 to infinity) in Sprague-Dawley rat measured at 10 mg/kg, po for 0.083 to 24 hrs by LC-MS/MS analysis; assay type: ADME, organism-based; parameters: dose 10 mg/kg, time upper 24 hrs, time lower 0.083 hrs, route po; conditions: in vivo
[21] = Cmax in Sprague-Dawley rat measured at 10 mg/kg, po for 0.083 to 24 hrs by LC-MS/MS analysis; assay type: ADME, organism-based; parameters: time 0.083-24 hrs, dose 10 mg/kg, route po; conditions: in vivo
[22] = Tmax in Sprague-Dawley rat measured at 10 mg/kg, po for 0.083 to 24 hrs by LC-MS/MS analysis; assay type: ADME, organism-based; conditions: in vivo, time 0.083-24 hrs
[23] = Clearance in Sprague-Dawley rat measured at 2 mg/kg, iv for 0.083 to 24 hrs by LC-MS/MS analysis; assay type: ADME, organism-based; conditions: in vivo, time 0.083-24 hrs
[24] = Permeability of the compound at 10 uM preincubated in acceptor compartment for 16 hrs followed by 16 hrs incubation in donor compartment by PAMPA based LC-MS/MS analysis; assay type: ADME; conditions: time 32 hrs, read-out: permeability
[25] = Cmax in Sprague-Dawley rat measured at 2 mg/kg, iv for 0.083 to 24 hrs by LC-MS/MS analysis; assay type: ADME, organism-based; parameters: time upper 24 hrs, time lower 0.083 hrs, dose 2 mg/kg, route iv; conditions: in vivo
[26] = biological target: Fibroblast growth factor receptor 3 (Homo sapiens, UniProt P22607); assay: Inhibition of FGFR3 (unknown origin) incubated for 10 mins followed by substrate addition measured after 60 mins by ADP-Glo luminescence assay
Sequence of Fibroblast growth factor receptor 3 (P22607 whole entry): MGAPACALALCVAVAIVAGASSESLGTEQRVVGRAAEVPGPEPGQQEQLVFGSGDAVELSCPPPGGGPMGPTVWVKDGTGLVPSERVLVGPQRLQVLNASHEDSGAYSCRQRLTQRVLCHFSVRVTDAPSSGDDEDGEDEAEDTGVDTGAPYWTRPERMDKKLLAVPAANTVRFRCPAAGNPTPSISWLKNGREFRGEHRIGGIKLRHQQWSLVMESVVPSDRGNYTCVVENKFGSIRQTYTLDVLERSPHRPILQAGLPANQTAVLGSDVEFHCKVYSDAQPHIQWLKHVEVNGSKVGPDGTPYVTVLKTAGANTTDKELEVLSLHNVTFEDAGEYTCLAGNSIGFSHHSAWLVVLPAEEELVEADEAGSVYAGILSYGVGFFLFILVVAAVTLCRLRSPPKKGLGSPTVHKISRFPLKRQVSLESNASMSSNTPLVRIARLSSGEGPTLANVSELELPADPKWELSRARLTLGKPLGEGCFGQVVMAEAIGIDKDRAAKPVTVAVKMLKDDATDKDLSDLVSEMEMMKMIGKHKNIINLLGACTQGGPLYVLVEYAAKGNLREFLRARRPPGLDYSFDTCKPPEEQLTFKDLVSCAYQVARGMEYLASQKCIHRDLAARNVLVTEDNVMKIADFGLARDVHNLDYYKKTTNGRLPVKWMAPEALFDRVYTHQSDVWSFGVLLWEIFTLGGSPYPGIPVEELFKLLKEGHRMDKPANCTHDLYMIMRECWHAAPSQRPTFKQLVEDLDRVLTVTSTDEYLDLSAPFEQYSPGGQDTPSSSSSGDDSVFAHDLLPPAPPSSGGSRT

SMILES: COc1cc2nccc(Oc3ccc(NC(=O)NC4CC4)c(Cl)c3)c2cc1C1CCN(C(=O)/C=C/C(F)(F)F)CC1
- IC50 [1]: 12.4 nM
- IC50 (Huh-7): 103 nM
- IC50 (Hep 3B2): > 10000 nM

SMILES: C=CC(=O)N1CCC(c2cc3c(Oc4ccc(NC(=O)NC5CC5)c(Cl)c4)ccnc3cc2OC(C)C)CC1
- IC50 [1]: 17 nM
- IC50 (Huh-7): 37.8 nM
- IC50 (Hep 3B2): 63.6 nM

SMILES: C=CC(=O)N1CCC(c2cc3c(Nc4ccc(F)c(Cl)c4)ccnc3cc2OC)CC1
- IC50 (Huh-7): > 10000 nM
- IC50 (Hep 3B2): > 10000 nM
- inhibition [2]: 15.3%

SMILES: C=CC(=O)N1CCC(c2cc3c(Oc4ccc(NC(=O)NC5CC5)c(Cl)c4)c(C#N)cnc3cc2OC)CC1
- IC50 (Huh-7): 8830 nM
- IC50 (Hep 3B2): > 10000 nM
- inhibition [2]: 15%

SMILES: C=CC(=O)N1CCC(c2cc3c(Oc4ccc(NC(=O)NC5CC5)c(F)c4)ccnc3cc2OC)CC1
- IC50 [1]: 18 nM
- IC50 (Huh-7): 21.1 nM
- IC50 (Hep 3B2): 30.2 nM

SMILES: C=CS(=O)(=O)N1CC=C(c2cc3c(Oc4ccc(NC(=O)NC5CC5)c(Cl)c4)ccnc3cc2OC)CC1
- IC50 [1]: 4.65 nM
- IC50 (Huh-7): > 10000 nM
- IC50 (Hep 3B2): 5080 nM

SMILES: C=CC(=O)N1CCC(c2cc3c(Oc4ccc5c(C(=O)NC)cccc5c4)ccnc3cc2OC)CC1
- IC50 (Huh-7): 114 nM
- IC50 (Hep 3B2): 125 nM
- inhibition [2]: 24%

SMILES: [2H]C([2H])([2H])Oc1cc2nccc(Oc3ccc(NC(=O)NC4CC4)c(Cl)c3)c2cc1C1CCN(C(=O)C=C)CC1
- IC50 [1]: 7.04 nM
- IC50 (Huh-7): 17.8 nM
- IC50 (Hep 3B2): 72.6 nM

SMILES: C=CC(=O)N1CCC(c2cc3c(Oc4ccc(NC(=O)NC5CC5)c(Cl)c4)ncnc3cc2OC)CC1
- IC50 [1]: 15 nM
- IC50 (Huh-7): 71.3 nM
- IC50 (Hep 3B2): 72.6 nM

SMILES: C=CC(=O)N1CCC(c2cc3c(Oc4ccc(NC(=O)NC5CC5)c(Cl)c4)ccnc3cc2OCC)CC1
- MRT [3]: 10.2 min
- bioavailability [4]: 43.7%
- IC50 [5]: 4.5 nM
- IC50 [1]: 230 nM
- IC50 (Huh-7): 9.4 nM
- half-life [6]: 78 min
- AUC(0-inf) [7]: 506 ng·h/mL
- Vd [8]: 0.659 L/kg
- IC50 (Hep 3B2): 17.4 nM
- MRT [9]: 85.2 min
- AUC(0-t) [10]: 1100 ng·h/mL
- Tmax [11]: 4.8 min
- AUC(0-t) [12]: 505 ng·h/mL
- MRT last [13]: 79.8 min
- IC50 [14]: 5.2 nM
- solubility at 2 h, 10000 µM [15]: < 0.073 µM
- pKa [16]: 5.28
- MRT last [17]: 9.6 min
- half-life [18]: 14.4 min
- C0 [19]: 3090 ng/mL
- AUC(0-inf) [20]: 1120 ng·h/mL
- Cmax [21]: 1680 ng/mL
- Tmax [22]: 15 min
- clearance [23]: 66 mL/min/kg
- Papp at 16 h, 10 µM [24]: 1.11 ×10⁻⁶ cm/s
- Cmax [25]: 1700 ng/mL
- IC50 [26]: 5.5 nM

SMILES: C=CC(=O)N1CC=C(c2cc3c(Oc4ccc(NC(=O)NC5CC5)c(Cl)c4)ccnc3cc2OC)C1
- IC50 [1]: 2.49 nM
- IC50 (Huh-7): 1520 nM
- IC50 (Hep 3B2): 438 nM

SMILES: COc1cc2nccc(Oc3ccc(NC(=O)NC4CC4)c(Cl)c3)c2cc1C1=CCN(C(=O)CCl)CC1
- IC50 [1]: 294 nM
- IC50 (Huh-7): > 10000 nM
- IC50 (Hep 3B2): 1660 nM

SMILES: C=CC(=O)N1CCC(c2cc3c(Oc4cc5cc(C)[nH]c5cc4F)ccnc3cc2OC)CC1
- IC50 (Huh-7): 216 nM
- IC50 (Hep 3B2): 313 nM
- inhibition [2]: 20.6%

SMILES: C=CC(=O)N1CCC(c2cc3c(Oc4ccc(NC(=O)C5(C(=O)Nc6ccc(F)cc6)CC5)cc4)ccnc3cc2OC)CC1
- IC50 (Huh-7): > 10000 nM
- IC50 (Hep 3B2): 3930 nM
- inhibition [2]: -2.1%

SMILES: C=CC(=O)N1CCC(c2cc3c(Oc4ccc(NC(=O)NC5CC5)c(OCC)c4)ccnc3cc2OC)CC1
- IC50 (Huh-7): 356 nM
- IC50 (Hep 3B2): 509 nM
- inhibition [2]: 10.7%
